Holding throughout (type): cell-based, human
In assay [1] the test system is hESC-derived ECs versus ACL cells. Description: High-throughput screening of LOPAC library, PrestoBlue cell viability, hESC-derived ECs versus ACL cells. Here is the method: (§1) High-throughput screening (HTS). HUAECS (Lonza) and hESC-derived ECs were cultured in EGM-2 medium while human anterior cruciate ligament cells (ACL cells) were cultured in Dulbecco's modified Eagle's medium (DMEM; PAA) supplemented with 10% FBS, 0.2 mM ascorbic acid 2-phosphate magnesium salt (Sigma Aldrich), […] streptomycin and 100 U/mL penicillin (Life Technologies). ACL cells were isolated from patients that have signed an informed consent form, in compliance with the Dutch legislation. The ethical committee of Medisch Spectrum Twente Hospital approved the collection.
(§2) The LOPAC library (Sigma-Aldrich) was used to screen embryonic endothelial-specific cytotoxic compounds. The compounds were solubilized in DMSO. The final compound concentration used in the screen was 4.5 μM in a final volume of 200 μL per well (96-well plate). HUAECs, hESC-derived EC and ACL cells were seeded at 16,000 cells/well (HUAECs and hESC-derived ECs) and 5,000 cells/well (ACL cells) and allowed to reach near confluence (approximately two days). After two days, medium was exchanged and test compounds and controls were added to the 96-well plates (all wells contained 0.25% (v/v) DMSO). After 4 days of incubation, cell viability was assessed using a PrestoBlue (Invitrogen) assay. This assay is based on a resazurin-based solution that indicates the reducing power of living cells and therefore measures indirectly their number. For each measurement, cell medium was removed and the PrestoBlue solution (10%) was added for 3 h at 37° C. upon which the absorbance was measured at 560-590 nm.
(§3) Disruption of vascular development has been directly correlated with prenatal loss, malformations and neurodevelopmental problems^41-44. […] The library was screened at a single dosage of 4.5 μM in a volume of 200 μL per well of EGM-2 medium, containing 0.25% DMSO (v/v). […] Six compounds (danazol, chlorpromazine hydrochloride, ellipticine, 3′,4′-dichlorobenzamil, fluphenazine dihydrochloride and 7-cyclopentyl-5-(4-phenoxy)phenyl-7H-pyrrolo[2,3-d]pyrimidin-4-ylamine) affected cell viability in both cells by a difference of 20% (FIG. 4B). The six compounds belong to different classes: cell cycle, ion pumps, dopamine pathway, phosphorylation and hormone signaling. The compounds selected from the primary screen were then tested against hESC-derived ECs and HUAECs at eight different concentrations to obtain a dose-response curve (FIG. 4C and FIG. 14).

For assay [2], the system named is hESC-derived ECs versus HUAECs. Description: High-throughput screening of LOPAC library, PrestoBlue cell viability, hESC-derived ECs versus HUAECs. To be noted: LOPAC screen, 4.5 μM, 4 days, PrestoBlue assay. Here is the method: as §1, §2, §3
Assay [3] deals with CD31+ cells. Description: Shh and Notch signaling modulators, arterial and venous marker expression in CD31+ cells. To be noted: for expression of arterial EC markers EphB2 (protein level), HEY-2, JAG-1 and EFNB1 (gene level) / expression of venous EC markers Lefty-1 and Lefty-2: purmorphamine 1 μM and DLL4 100 ng/mL together, versus cells without activators; for expression of arterial marker EphB2: cyclopamine 5 μM and Notch inhibitor L685458 1 μM together. Here is the method:
hESC culture and differentiation. Undifferentiated hESCs (passages 33-36; H9, WiCell, Wisconsin) or hiPSCs K2 (passages 32-35; cord blood derived iPSCs kindly donated by Ulrich Martin) were grown on an inactivated mouse embryonic fibroblast (MEF) feeder layer, as previously described 1, 2. To induce the formation of EBs, the undifferentiated hESCs were treated with 2 mg/mL type IV collagenase (Invitrogen) for 2 h and then transferred (2:1) to low attachment plates (Corning) containing 10 mL of differentiation medium [80% KO-DMEM, 20% fetal bovine serum (FBS, Invitrogen), 0.5% L-glutamine, 0.2% β-mercaptoethanol, 1% nonessential amino acids]. The differentiation medium was supplemented with VEGF165 (50 ng/mL, Prepotech), Tβ4 (100 ng/mL, Caslo) and SB431542 (10 μM, Tocris) according to the following timeline: [(VEGF165)days0-18+(Tβ4)days4-18+(SB431542)days7-18]. After 4 days in suspension, EBs were plated onto 1% gelatin-coated dishes and grown for 14 additional days. Medium was changed every 2-3 days. To evaluate the contribution of Shh and Notch signaling pathways, the differentiation medium was supplemented with one or two of the following agents: 1 μM purmorphamine (Shh activator; Cayman Chemical), 5 μM cyclopamine (Shh inhibitor; Sigma), 100 ng/ml DLL-4 (Notch activator; Prepotech), or 1 μM Y^−-secretase inhibitor L685458 (Notch inhibitor; Tocris Biosciences) 47.
Arterial and venous gene expression was analyzed in CD31^+ cells at the time of their isolation. […] Because arterial/vein specification during mouse embryogenesis is in large part mediated by Notch and Sonic Hedgehog (Shh), the expression of Notch (Notch1, Notch2, Notch3, Notch4) and Shh (patched 1) receptors as well as Notch (DLL1, DLL3, DLL4, JAG-1, JAG-2) and Shh transcription factors (GLI1 and SMO) in CD31^+ cells was assessed (FIG. 1E). […] Was also studied the involvement of Notch and Shh signaling pathways in the gene expression of arterial and venous markers in cells after CD31^+ cell isolation. The independent activation of each signaling pathway has little impact in the expression of arterial marker EphB2 (FIG. 1F).

Where [4] appears, read: LOPAC screen, 4.5 μM, 4 days of incubation, PrestoBlue assay.

Where a name gives a salt, the structure may show the parent alone. Read-outs that look alike come from different tables or passages of the source.

As for `C#C[C@]1(O)CC[C@H]2[C@@H]3CCC4=Cc5oncc5C[C@]4(C)[C@H]3CC[C@@]21C` [Danazol], in assay [1] (setting [4]), the “Differences (%) in cell viability (hESC-Derived ECs versus ACL cells)” value (shortened to “Differences (%) in cell viability”) amounted to 52.7%. In assay [2], the “difference in cell viability between hESC-derived ECs and HUAECs” value was found to be 20%. As for `Cc1c2ccncc2c(C)c2c1[nH]c1ccccc12` [Ellipticine], the “Differences (%) in cell viability” value in assay [1] (setting [4]) worked out at 58.5%. The “difference in cell viability between hESC-derived ECs and HUAECs” value in assay [2] turned out to be 20%. Taken in the same sequence, the figures for `N/C(=N\C(=O)c1nc(Cl)c(N)nc1N)NCc1ccc(Cl)c(Cl)c1` [3′,4′-Dichlorobenzamil] were 54.2% and 20%.

In the case of `CN(C)CCCN1c2ccccc2Sc2ccc(Cl)cc21` [Chlorpromazine hydrochloride], the “Differences (%) in cell viability” value in assay [1] (setting [4]) is reported as 57.2%. Besides, the “difference in cell viability between hESC-derived ECs and HUAECs” value in assay [2] stood at 20%.

As to `c1ccc2c(Oc3nc(Nc4ccc(N5CCOCC5)cc4)c4ncn(C5CCCCC5)c4n3)cccc2c1` [purmorphamine], in assay [3], the “expression of arterial EC markers EphB2 (protein level), HEY-2, JAG-1 and EFNB1 (gene level)” value is reported as “significantly increased”; the “expression of venous EC markers Lefty-1 and Lefty-2” value is “decreased”.

On to `CC(C)C[C@H](NC(=O)[C@H](Cc1ccccc1)C[C@@H](O)[C@H](Cc1ccccc1)NC(=O)OC(C)(C)C)C(=O)N[C@@H](Cc1ccccc1)C(N)=O` [L685458], for which the “expression of arterial marker EphB2” value in assay [3] is on record as “significantly decreased”. For the compound DLL4: Notch activator, in assay [3], the “expression of arterial EC markers EphB2 (protein level), HEY-2, JAG-1 and EFNB1 (gene level)” value is on record as “significantly increased”; the “expression of venous EC markers Lefty-1 and Lefty-2” value was “decreased”. For `OCCN1CCN(CCCN2c3ccccc3Sc3ccc(C(F)(F)F)cc32)CC1` [Fluphenazine dihydrochloride], the “Differences (%) in cell viability” value in assay [1] (setting [4]) came out at 51.4%. In addition, the “difference in cell viability between hESC-derived ECs and HUAECs” value in assay [2] stood at 20%. Regarding `CC[C@]1(O)C[C@H]2CN(CCc3c([nH]c4ccccc34)[C@@](C(=O)OC)(c3cc4c(cc3OC)N(C=O)[C@H]3[C@@](O)(C(=O)OC)[C@H](OC(C)=O)[C@]5(CC)C=CCN6CC[C@]43[C@@H]65)C2)C1` [Vincristine sulfate], the “Differences (%) in cell viability” value in assay [1] (setting [4]) amounted to 89.2%. As for `COCC(=O)O[C@]1(CCN(C)CCCc2nc3ccccc3[nH]2)CCc2cc(F)ccc2[C@@H]1C(C)C` [Mibefradil dihydrochloride], the “Differences (%) in cell viability” value in assay [1] (setting [4]) is 62.2%.

With Vinblastine sulfate salt, the “Differences (%) in cell viability” value in assay [1] (setting [4]) stood at 92.8%. On the same count and under the same terms, as for `Oc1cc(-c2ccccc2)nc2nc(Cl)ccc12` [7-Chloro-4-hydroxy-2-phenyl-1,8-naphthyridine], the figure is 59.1%; as for `C[C@H]1O[C@@H](n2cc(F)c(=O)[nH]c2=O)[C@H](O)[C@@H]1O` [5-fluoro-5′-deoxyuridine], 60.8%. The same measure, in the same setting: the figure for `Cc1nc2n(c(=O)c1CCN1CCC(c3noc4cc(F)ccc34)CC1)CCCC2` [Risperidone] is 56.9%; for `COc1ccc(NC(=O)c2ccc(-c3ccc(-c4noc(C)n4)cc3C)cc2)cc1N1CCN(C)CC1` [GR 127935 hydrochloride] it is 66.1%. For the compound (±)-Butaclamol hydrochloride, in assay [1] (setting [4]), the “Differences (%) in cell viability” value turned out to be 53.6%. In the case of `CC1=C2C[C@H]3[C@@H](CC=C4C[C@@H](O)CC[C@@]43C)[C@@H]2CC[C@]12O[C@@H]1C[C@H](C)CN[C@H]1[C@H]2C` [cyclopamine], the “expression of arterial marker EphB2” value in assay [3] is listed as “significantly decreased”. With `Clc1ccc(C(c2ccc(Cl)cc2)n2cc[n+](CC(OCc3ccc(Cl)cc3Cl)c3ccc(Cl)cc3Cl)c2)cc1` (centres unmarked) [Calmidazolium chloride], the “Differences (%) in cell viability” value in assay [1] (setting [4]) worked out at 96.1%. Same read-out and setting: as for `O=C1NCN(c2ccccc2)C12CCN(CCCC(c1ccc(F)cc1)c1ccc(F)cc1)CC2` [Fluspirilene], the figure is 86.7%; as for `CC(C)(C)c1cc(/C=C(\C#N)C(N)=S)cc(C(C)(C)C)c1O` [Tyrphostin AG 879], 54.4%; as for `c1ccc2c(c1)[I+]c1ccccc1-2` [Diphenyleneiodonium chloride], 69.6%. For the compound `N#CC(=C(/N)Sc1ccccc1N)/C(C#N)=C(\N)Sc1ccccc1N` [U0126], the “Differences (%) in cell viability” value in assay [1] is reported as 68.9%.

The record behind these values is patent publication US10526580B2, “Differentiated cell population of endothelial cells derived from human pluripotent stem cells, composition, system, kit and uses thereof” (BIOCANT-ASSOCIAÇÃO DE TRANSFERÊNCIA DE TECNOLOGIA, priority 2012, dated 2020).
